Experiments:
[1] = system: GLXMAW (Soybean, Williams); assay: Preemergence herbicidal evaluation; type: in vivo, Glycine max, (L.) Merr. cv Williams; settings: rated 4-5 weeks after treatment
Procedure, shortened: (§1)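 Scores use a 0–9 visual scale covering stand, vigor, malformation, size and chlorosis relative to controls, rated four to five weeks after treatment. Before emergence, soil-planted seeds were sprayed with compound in aqueous acetone at roughly 0.0156–0.500 kg/ha and held in the greenhouse.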

MOOVA (Monochoria) = assay: Postemergence weed control under flooded paddy conditions; type: in vivo, Monochoria vaginalis; settings: postemergence weeds, 3-4 weeks after treatment
Procedure, shortened: (§2)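 Flood-water application, about 0.0313–0.500 kg/ha a.i. in aqueous/acetone 50/50 v/v; water depth 1.5–3 cm throughout. Weeds 3–5 cm, rice 1.5–2.5 leaf. Greenhouse; 0–9 visual rating vs control at 3–4 wk.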

AMBEL (Ragweed, Common) = assay: Preemergence herbicidal evaluation; type: in vivo, Ambrosia artemisifolia; settings: rated 4-5 weeks after treatment
Procedure, shortened: as §1

ZEAMX (Corn, Field) = assay: Postemergence herbicidal evaluation; type: in vivo, Zea mays; settings: for ZEAMX herbicidal rating: postemergence
Procedure, shortened: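 ~2-wk seedlings; postemergence spray, 40 psi; vehicle 1:1 acetone:water + 0.5% Tween 20; rate ≈0.0156–0.500 kg/ha; greenhouse hold; scored 4–5 wk after treatment, 0–9 scale vs control; repeat tests averaged.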

[2] = system: SAGPY (Arrowhead (Pygmaea)); assay: Postemergence weed control under flooded paddy conditions; type: in vivo, Sagittaria pygmaea; settings: postemergence weeds, 3-4 weeks after treatment
Procedure, shortened: as §2

ABUTH (Velvetleaf) = assay: Preemergence herbicidal evaluation; type: in vivo, Abutilon theophrasti; settings: rated 4-5 weeks after treatment
Procedure, shortened: as §1

## C=CCN1C(=O)CSC1=Nc1cc(-n2c(=O)cc(C(F)(F)F)n(C)c2=O)c(F)cc1Cl [Compound 27]
[1]; rate 0.0156 kg/ha
  Preemergence herbicidal rating GLXMAW: 0.0
[1]; rate 0.0313 kg/ha
  Preemergence herbicidal rating GLXMAW: 0.0
[1]; rate 0.0625 kg/ha
  Preemergence herbicidal rating GLXMAW: 9.0
[1]; rate 0.1250 kg/ha
  Preemergence herbicidal rating GLXMAW: 9.0
[1]; rate 0.2500 kg/ha
  Preemergence herbicidal rating GLXMAW: 7.0
MOOVA (Monochoria); rate 0.0313 kg/ha
  Herbicidal rating MOOVA: 9.0
MOOVA (Monochoria); rate 0.0625 kg/ha
  Herbicidal rating MOOVA: 9.0
MOOVA (Monochoria); rate 0.1250 kg/ha
  Herbicidal rating MOOVA: 9.0
MOOVA (Monochoria); rate 0.2500 kg/ha
  Herbicidal rating MOOVA: 9.0
AMBEL (Ragweed, Common); rate 0.0156 kg/ha
  Preemergence herbicidal rating AMBEL: 0.0
AMBEL (Ragweed, Common); rate 0.0313 kg/ha
  Preemergence herbicidal rating AMBEL: 2.0
AMBEL (Ragweed, Common); rate 0.0625 kg/ha
  Preemergence herbicidal rating AMBEL: 2.0
AMBEL (Ragweed, Common); rate 0.1250 kg/ha
  Preemergence herbicidal rating AMBEL: 9.0
AMBEL (Ragweed, Common); rate 0.2500 kg/ha
  Preemergence herbicidal rating AMBEL: 7.0
ZEAMX (Corn, Field); rate 0.0158 kg/ha
  ZEAMX herbicidal rating: 5.0
ZEAMX (Corn, Field); rate 0.0315 kg/ha
  ZEAMX herbicidal rating: 5.5
ZEAMX (Corn, Field); rate 0.0630 kg/ha
  ZEAMX herbicidal rating: 6.5
[2]; rate 0.0313 kg/ha
  Herbicidal rating SAGPY: 0.0
[2]; rate 0.0625 kg/ha
  Herbicidal rating SAGPY: 0.0
[2]; rate 0.1250 kg/ha
  Herbicidal rating SAGPY: 4.0
[2]; rate 0.2500 kg/ha
  Herbicidal rating SAGPY: 4.0
ABUTH (Velvetleaf); rate 0.0156 kg/ha
  Preemergence herbicidal rating ABUTH: 7.0
ABUTH (Velvetleaf); rate 0.0313 kg/ha
  Preemergence herbicidal rating ABUTH: 9.0
ABUTH (Velvetleaf); rate 0.0625 kg/ha
  Preemergence herbicidal rating ABUTH: 9.0
ABUTH (Velvetleaf); rate 0.1250 kg/ha
  Preemergence herbicidal rating ABUTH: 9.0
ABUTH (Velvetleaf); rate 0.2500 kg/ha
  Preemergence herbicidal rating ABUTH: 9.0

## CCOC(=O)CN1C(=O)C(CC(=O)OCc2ccccc2)OC1=Nc1cc(-n2c(=O)cc(C(F)(F)F)n(C)c2=O)c(F)cc1Cl (centres unmarked) [Compound 40, 2-{{2-Chloro-5-[3,6-dihydro-3-methyl-2,6-dioxo-4-(trifluoromethyl)-1(2H)-pyrimidinyl]-4-fluorophenyl}imino}-4-oxo-3,5-oxazolidinediacetic acid, 5-benzyl ethyl ester]
[1]; rate 0.0313 kg/ha
  Preemergence herbicidal rating GLXMAW: 0.0
[1]; rate 0.0625 kg/ha
  Preemergence herbicidal rating GLXMAW: 0.0
[1]; rate 0.1250 kg/ha
  Preemergence herbicidal rating GLXMAW: 1.0
[1]; rate 0.2500 kg/ha
  Preemergence herbicidal rating GLXMAW: 3.0
MOOVA (Monochoria); rate 0.0313 kg/ha
  Herbicidal rating MOOVA: 9.0
MOOVA (Monochoria); rate 0.0625 kg/ha
  Herbicidal rating MOOVA: 9.0
MOOVA (Monochoria); rate 0.1250 kg/ha
  Herbicidal rating MOOVA: 9.0
MOOVA (Monochoria); rate 0.2500 kg/ha
  Herbicidal rating MOOVA: 9.0
AMBEL (Ragweed, Common); rate 0.0313 kg/ha
  Preemergence herbicidal rating AMBEL: 0.0
AMBEL (Ragweed, Common); rate 0.0625 kg/ha
  Preemergence herbicidal rating AMBEL: 2.0
AMBEL (Ragweed, Common); rate 0.1250 kg/ha
  Preemergence herbicidal rating AMBEL: 6.0
AMBEL (Ragweed, Common); rate 0.2500 kg/ha
  Preemergence herbicidal rating AMBEL: 6.0
ZEAMX (Corn, Field); Rate 0.0158 kg/ha
  Postemergence herbicidal rating ZEAMX: 7.0
ZEAMX (Corn, Field); Rate 0.0315 kg/ha
  Postemergence herbicidal rating ZEAMX: 7.5
ZEAMX (Corn, Field); Rate 0.0630 kg/ha
  Postemergence herbicidal rating ZEAMX: 8.5
[2]; rate 0.0313 kg/ha
  Herbicidal rating SAGPY: 0.0
[2]; rate 0.0625 kg/ha
  Herbicidal rating SAGPY: 0.0
[2]; rate 0.1250 kg/ha
  Herbicidal rating SAGPY: 0.0
[2]; rate 0.2500 kg/ha
  Herbicidal rating SAGPY: 0.0
ABUTH (Velvetleaf); rate 0.0313 kg/ha
  Preemergence herbicidal rating ABUTH: 0.0
ABUTH (Velvetleaf); rate 0.0625 kg/ha
  Preemergence herbicidal rating ABUTH: 6.0
ABUTH (Velvetleaf); rate 0.1250 kg/ha
  Preemergence herbicidal rating ABUTH: 9.0
ABUTH (Velvetleaf); rate 0.2500 kg/ha
  Preemergence herbicidal rating ABUTH: 9.0

## COC(=O)CCN1C(=O)CSC1=Nc1cc(-n2c(=O)cc(C(F)(F)F)n(C)c2=O)c(F)cc1Cl [Compound 28, Methyl 2-{{2-chloro-5-[3,6-dihydro-3-methyl-2,6-dioxo-4-(trifluoromethyl)-1(2H)-pyrimidinyl]-4-fluorophenyl}imino}-4-oxo-3-thiazolidinepropionate]
[1]; rate 0.0625 kg/ha
  Preemergence herbicidal rating GLXMAW: 3.0
[1]; rate 0.1250 kg/ha
  Preemergence herbicidal rating GLXMAW: 5.0
[1]; rate 0.2500 kg/ha
  Preemergence herbicidal rating GLXMAW: 9.0
MOOVA (Monochoria); rate 0.0313 kg/ha
  Herbicidal rating MOOVA: 9.0
MOOVA (Monochoria); rate 0.0625 kg/ha
  Herbicidal rating MOOVA: 9.0
MOOVA (Monochoria); rate 0.1250 kg/ha
  Herbicidal rating MOOVA: 9.0
MOOVA (Monochoria); rate 0.2500 kg/ha
  Herbicidal rating MOOVA: 9.0
AMBEL (Ragweed, Common); rate 0.0625 kg/ha
  Preemergence herbicidal rating AMBEL: 0.0
AMBEL (Ragweed, Common); rate 0.1250 kg/ha
  Preemergence herbicidal rating AMBEL: 0.0
AMBEL (Ragweed, Common); rate 0.2500 kg/ha
  Preemergence herbicidal rating AMBEL: 7.0
ZEAMX (Corn, Field); Rate 0.0158 kg/ha
  Postemergence herbicidal rating ZEAMX: 7.5
ZEAMX (Corn, Field); Rate 0.0315 kg/ha
  Postemergence herbicidal rating ZEAMX: 7.5
ZEAMX (Corn, Field); Rate 0.0630 kg/ha
  Postemergence herbicidal rating ZEAMX: 9.0
[2]; rate 0.0313 kg/ha
  Herbicidal rating SAGPY: 0.0
[2]; rate 0.0625 kg/ha
  Herbicidal rating SAGPY: 0.0
[2]; rate 0.1250 kg/ha
  Herbicidal rating SAGPY: 0.0
[2]; rate 0.2500 kg/ha
  Herbicidal rating SAGPY: 0.0
ABUTH (Velvetleaf); rate 0.1250 kg/ha
  Preemergence herbicidal rating ABUTH: 3.0
ABUTH (Velvetleaf); rate 0.2500 kg/ha
  Preemergence herbicidal rating ABUTH: 9.0

## CCC1SC(=Nc2cc(-n3c(=O)cc(C(F)(F)F)n(C)c3=O)c(F)cc2Cl)N(C)C1=O (centres unmarked) [Compound 10]
[1]; rate 0.0156 kg/ha
  GLXMAW preemergence herbicidal rating: 2.0
[1]; rate 0.0313 kg/ha
  GLXMAW preemergence herbicidal rating: 2.3
[1]; rate 0.0625 kg/ha
  GLXMAW preemergence herbicidal rating: 3.7
[1]; rate 0.1250 kg/ha
  GLXMAW preemergence herbicidal rating: 6.7
[1]; rate 0.2500 kg/ha
  GLXMAW preemergence herbicidal rating: 7.0
MOOVA (Monochoria); rate 0.0313 kg/ha
  Herbicidal rating MOOVA: 9.0
MOOVA (Monochoria); rate 0.0625 kg/ha
  Herbicidal rating MOOVA: 9.0
MOOVA (Monochoria); rate 0.1250 kg/ha
  Herbicidal rating MOOVA: 9.0
MOOVA (Monochoria); rate 0.2500 kg/ha
  Herbicidal rating MOOVA: 9.0
AMBEL (Ragweed, Common); rate 0.0156 kg/ha
  AMBEL preemergence herbicidal rating: 0.3
AMBEL (Ragweed, Common); rate 0.0313 kg/ha
  AMBEL preemergence herbicidal rating: 0.3
AMBEL (Ragweed, Common); rate 0.0625 kg/ha
  AMBEL preemergence herbicidal rating: 3.3
AMBEL (Ragweed, Common); rate 0.1250 kg/ha
  AMBEL preemergence herbicidal rating: 4.7
AMBEL (Ragweed, Common); rate 0.2500 kg/ha
  AMBEL preemergence herbicidal rating: 6.3
ZEAMX (Corn, Field); rate 0.0156 kg/ha
  ZEAMX herbicidal rating: 4.3
ZEAMX (Corn, Field); rate 0.0313 kg/ha
  ZEAMX herbicidal rating: 5.3
ZEAMX (Corn, Field); rate 0.0625 kg/ha
  ZEAMX herbicidal rating: 5.3
ZEAMX (Corn, Field); rate 0.1250 kg/ha
  ZEAMX herbicidal rating: 5.3
[2]; rate 0.0313 kg/ha
  Herbicidal rating SAGPY: 0.0
[2]; rate 0.0625 kg/ha
  Herbicidal rating SAGPY: 0.0
[2]; rate 0.1250 kg/ha
  Herbicidal rating SAGPY: 0.0
[2]; rate 0.2500 kg/ha
  Herbicidal rating SAGPY: 0.0
ABUTH (Velvetleaf); rate 0.0156 kg/ha
  ABUTH preemergence herbicidal rating: 5.5
ABUTH (Velvetleaf); rate 0.0313 kg/ha
  ABUTH preemergence herbicidal rating: 8.0
ABUTH (Velvetleaf); rate 0.0625 kg/ha
  ABUTH preemergence herbicidal rating: 9.0
ABUTH (Velvetleaf); rate 0.1250 kg/ha
  ABUTH preemergence herbicidal rating: 9.0
ABUTH (Velvetleaf); rate 0.2500 kg/ha
  ABUTH preemergence herbicidal rating: 9.0

## CC1SC(=Nc2cc(-n3c(=O)cc(C(F)(F)F)n(C)c3=O)c(F)cc2Cl)N(C)C1=O (centres unmarked) [Compound 9]
[1]; rate 0.0156 kg/ha
  GLXMAW preemergence herbicidal rating: 4.0
[1]; rate 0.0313 kg/ha
  GLXMAW preemergence herbicidal rating: 6.0
[1]; rate 0.0625 kg/ha
  GLXMAW preemergence herbicidal rating: 6.3
[1]; rate 0.1250 kg/ha
  GLXMAW preemergence herbicidal rating: 8.7
[1]; rate 0.2500 kg/ha
  GLXMAW preemergence herbicidal rating: 9.0
MOOVA (Monochoria); rate 0.0313 kg/ha
  Herbicidal rating MOOVA: 9.0
MOOVA (Monochoria); rate 0.0625 kg/ha
  Herbicidal rating MOOVA: 9.0
MOOVA (Monochoria); rate 0.1250 kg/ha
  Herbicidal rating MOOVA: 9.0
MOOVA (Monochoria); rate 0.2500 kg/ha
  Herbicidal rating MOOVA: 9.0
AMBEL (Ragweed, Common); rate 0.0156 kg/ha
  AMBEL preemergence herbicidal rating: 3.0
AMBEL (Ragweed, Common); rate 0.0313 kg/ha
  AMBEL preemergence herbicidal rating: 6.3
AMBEL (Ragweed, Common); rate 0.0625 kg/ha
  AMBEL preemergence herbicidal rating: 7.3
AMBEL (Ragweed, Common); rate 0.1250 kg/ha
  AMBEL preemergence herbicidal rating: 9.0
AMBEL (Ragweed, Common); rate 0.2500 kg/ha
  AMBEL preemergence herbicidal rating: 9.0
ZEAMX (Corn, Field); rate 0.0156 kg/ha
  ZEAMX herbicidal rating: 4.8
ZEAMX (Corn, Field); rate 0.0313 kg/ha
  ZEAMX herbicidal rating: 5.0
ZEAMX (Corn, Field); rate 0.0625 kg/ha
  ZEAMX herbicidal rating: 5.5
ZEAMX (Corn, Field); rate 0.1250 kg/ha
  ZEAMX herbicidal rating: 7.0
[2]; rate 0.0313 kg/ha
  Herbicidal rating SAGPY: 0.0
[2]; rate 0.0625 kg/ha
  Herbicidal rating SAGPY: 0.0
[2]; rate 0.1250 kg/ha
  Herbicidal rating SAGPY: 1.0
[2]; rate 0.2500 kg/ha
  Herbicidal rating SAGPY: 2.0
ABUTH (Velvetleaf); rate 0.0156 kg/ha
  ABUTH preemergence herbicidal rating: 9.0
ABUTH (Velvetleaf); rate 0.0313 kg/ha
  ABUTH preemergence herbicidal rating: 9.0
ABUTH (Velvetleaf); rate 0.0625 kg/ha
  ABUTH preemergence herbicidal rating: 9.0
ABUTH (Velvetleaf); rate 0.1250 kg/ha
  ABUTH preemergence herbicidal rating: 9.0
ABUTH (Velvetleaf); rate 0.2500 kg/ha
  ABUTH preemergence herbicidal rating: 9.0

From US20020137929A1, “1 - (3-heterocyclylphenyl) isothiourea, -isourea, -guanidine and -amidine herbicidal agents” (Intellectual Property Department, BASF Aktiengesellschaft, priority 1998, published 2002)
